Laboratory results reported in patent publication US20140288056A1, “METHODS FOR NON-TOXIC TREATMENT FOR DRUG WITHDRAWAL” (DEMERX, INC., priority 2013, published 2014).

Experiments:
psychotomimetic effects = assay: Evaluation of psychotomimetic effects in an animal model; type: in vivo
dogs = assay: Acute oral toxicity/TK study in dogs; type: in vivo, dog
cynomolgus monkey = assay: Single dose toxicity in cynomolgus monkeys, oral gavage; type: in vivo
Protocol: The objective of the study was to determine the toxicity and toxicokinetic profile of noribogaine following oral (gavage) administration to the cynomolgus monkey. The test article was administered as follows in Table 1:
Parameters monitored on the study included: mortality, clinical signs and body weights. Blood samples were collected for TK evaluation. […] The single dose maximum tolerated dose (MTD) was determined to be greater than 160 mg/kg based on the parameters monitored during the study.

various animal species = assay: Pre-clinical toxicity studies in various animal species; type: in vivo
Excerpt: Given the signs of efficacy that noribogaine has shown, there is a need for a method to administer noribogaine in dosages that provide efficacy without leading to any significant deleterious clinical signs.

[1] = Plasma toxicokinetics in dogs, 14 day repeat dose study; type: in vivo, dog
Protocol: Noribogaine HCl was administered to groups of 4 male and 4 female dogs by single oral gavage daily for 14 days at doses of 0, 0.5, 1.0 and 5.0 mg/kg/day. An additional group of 4 male and 4 female dogs received either the vehicle control or 5.0 mg/kg/day for 14 days and were held for an additional 28 days after cessation of dosing to assess recovery from any potential drug-induced changes. The study was conducted under GLP guidelines and included comprehensive examinations of clinical signs, body weight, clinical pathology parameters, ophthalmologic examinations, ECG recordings and analyses of plasma for bioanalytical measurement of drug levels at appropriate intervals during the study. At the termination of the dosing phase and at the termination of the recovery phase, all dogs were subjected to a complete post-mortem examination including gross examination of major organs and histologic examination of an extensive list of tissues. Additional sections of brain were obtained from cerebrum, cerebellus, brain stem and spinal cord and examined histologically to evaluate potential effects on brain histopathology. In addition, these sections were examined with immunohistochemical stains for GFAP for evidence of gliosis and Calbindin for a more comprehensive examination of cerebellar Purkinje cells.

[2] = Human pharmacokinetic study, single oral dose, fasting healthy volunteers; type: in vivo; settings: fasting, serum
Protocol: In double blind studies, fasting healthy volunteers (6 per cohort) were treated once orally with a tablet of noribogaine HCl. In escalating cohorts, the volunteers received 3 mg, 10 mg, 30 mg or 60 mg noribogaine.

drug-seeking behavior = assay: Animal studies in various addiction models; type: in vivo
[3] = female dogs, Gr 2 0.5 mg/kg, D 1
[4] = female dogs, Gr 2 0.5 mg/kg, D 14
[5] = female dogs, Gr 3 1.0 mg/kg, D 1
[6] = female dogs, Gr 3 1.0 mg/kg, D 14
[7] = female dogs, Gr 4 5.0 mg/kg, D 1
[8] = female dogs, Gr 4 5.0 mg/kg, D 14
[9] = male dogs, Gr 2 0.5 mg/kg, D 14
[10] = male dogs, Gr 3 1.0 mg/kg, D 14
[11] = male dogs, Gr 4 5.0 mg/kg, D 14

CC[C@H]1C[C@H]2C[C@H]3c4[nH]c5ccc(O)cc5c4CCN(C2)[C@@H]13 [noribogaine]
Psychotomimetic effects (psychotomimetic effects): no activity | Findings at the NOAEL dose (dogs; 5 mg/kg oral): only transient reduction in food consumption in one dog | Convulsions and other CNS-related clinical signs (dogs; 10 mg/kg oral): occurred | Onset of convulsions and CNS-related clinical signs after dosing (dogs; 10 mg/kg oral): 20 min | Mortality (dogs; 5 (n=2) or 10 (n=2) mg/kg oral): no mortality occurred | NOAEL (dogs; single oral dose): 5 mg/kg | Single dose maximum tolerated dose (MTD) (cynomolgus monkey): greater than 160 mg/kg | Mortality or treatment related clinical signs (cynomolgus monkey; doses up to and including 160 mg/kg): No mortality or treatment related clinical signs were noted | Toxic effects of high doses (various animal species): convulsions and other CNS-related clinical signs, respiratory arrest and death | AUC0-24 h [1, 3]: 40.4 ng·h/mL | AUC0-last [1, 3]: 31.5 ng·h/mL | AUC0-∞ [1, 3]: 44.9 ng·h/mL | Cmax [1, 3]: 25.3 ng/mL | T1/2 [1, 3]: 1.0 h | Tmax [1, 3]: 30 min | AUC0-24 h [1, 4]: 55.0 ng·h/mL | AUC0-last [1, 4]: 35.4 ng·h/mL | AUC0-∞ [1, 4]: 45.7 ng·h/mL | Cmax [1, 4]: 29.8 ng/mL | T1/2 [1, 4]: 1.1 h | Tmax [1, 4]: 60 min | AUC0-24 h [1, 5]: 176.2 ng·h/mL | AUC0-last [1, 5]: 148.9 ng·h/mL | AUC0-∞ [1, 5]: 165.3 ng·h/mL | Cmax [1, 5]: 68.5 ng/mL | T1/2 [1, 5]: 1.4 h | Tmax [1, 5]: 48 min | AUC0-24 h [1, 6]: 203.7 ng·h/mL | AUC0-last [1, 6]: 169.0 ng·h/mL | AUC0-∞ [1, 6]: 197.0 ng·h/mL | Cmax [1, 6]: 74.1 ng/mL | T1/2 [1, 6]: 1.6 h | Tmax [1, 6]: 30 min | AUC0-24 h [1, 7]: 3367.9 ng·h/mL | AUC0-last [1, 7]: 3367.9 ng·h/mL | AUC0-∞ [1, 7]: 3425.7 ng·h/mL | Cmax [1, 7]: 691 ng/mL | T1/2 [1, 7]: 4.3 h | Tmax [1, 7]: 36 min | AUC0-24 h [1, 8]: 5951.2 ng·h/mL | AUC0-last [1, 8]: 5951.2 ng·h/mL | AUC0-∞ [1, 8]: 6283.2 ng·h/mL | Cmax [1, 8]: 683 ng/mL | T1/2 [1, 8]: 5.7 h | Tmax [1, 8]: 36 min | AUC0-24 h ([1]; male dogs, Gr 2 0.5 mg/kg, D 1): 59.7 ng·h/mL | AUC0-last ([1]; male dogs, Gr 2 0.5 mg/kg, D 1): 46.6 ng·h/mL | AUC0-∞ ([1]; male dogs, Gr 2 0.5 mg/kg, D 1): 67.8 ng·h/mL | Cmax ([1]; male dogs, Gr 2 0.5 mg/kg, D 1): 28.8 ng/mL | T1/2 ([1]; male dogs, Gr 2 0.5 mg/kg, D 1): 1.3 h | Tmax ([1]; male dogs, Gr 2 0.5 mg/kg, D 1): 42 min | AUC0-24 h [1, 9]: 64.5 ng·h/mL | AUC0-last [1, 9]: 53.2 ng·h/mL | AUC0-∞ [1, 9]: 68.2 ng·h/mL | Cmax [1, 9]: 29.4 ng/mL | T1/2 [1, 9]: 1.3 h | Tmax [1, 9]: 42 min | AUC0-24 h ([1]; male dogs, Gr 3 1.0 mg/kg, D 1): 119.8 ng·h/mL | AUC0-last ([1]; male dogs, Gr 3 1.0 mg/kg, D 1): 102.5 ng·h/mL | AUC0-∞ ([1]; male dogs, Gr 3 1.0 mg/kg, D 1): 120.8 ng·h/mL | Cmax ([1]; male dogs, Gr 3 1.0 mg/kg, D 1): 58.6 ng/mL | T1/2 ([1]; male dogs, Gr 3 1.0 mg/kg, D 1): 1.2 h | Tmax ([1]; male dogs, Gr 3 1.0 mg/kg, D 1): 54 min | AUC0-24 h [1, 10]: 210.4 ng·h/mL | AUC0-last [1, 10]: 172.3 ng·h/mL | AUC0-∞ [1, 10]: 195.7 ng·h/mL | Cmax [1, 10]: 67.6 ng/mL | T1/2 [1, 10]: 1.8 h | Tmax [1, 10]: 48 min | AUC0-24 h ([1]; male dogs, Gr 4 5.0 mg/kg, D 1): 3515.0 ng·h/mL | AUC0-last ([1]; male dogs, Gr 4 5.0 mg/kg, D 1): 3515.0 ng·h/mL | AUC0-∞ ([1]; male dogs, Gr 4 5.0 mg/kg, D 1): 3630.5 ng·h/mL | Cmax ([1]; male dogs, Gr 4 5.0 mg/kg, D 1): 693 ng/mL | T1/2 ([1]; male dogs, Gr 4 5.0 mg/kg, D 1): 4.7 h | Tmax ([1]; male dogs, Gr 4 5.0 mg/kg, D 1): 36 min | AUC0-24 h [1, 11]: 6403.3 ng·h/mL | AUC0-last [1, 11]: 6403.3 ng·h/mL | AUC0-∞ [1, 11]: 6961.4 ng·h/mL | Cmax [1, 11]: 716 ng/mL | T1/2 [1, 11]: 6.5 h | Tmax [1, 11]: 54 min | mean AUC/24 hr ([2]; single dose 3 mg): 3.1 ng/mL | mean Cmax ([2]; single dose 3 mg): 5.2 ng/mL | mean AUC/24 hr ([2]; single dose 10 mg): 10.6 ng/mL | mean Cmax ([2]; single dose 10 mg): 14.5 ng/mL | mean AUC/24 ([2]; single dose 30 mg): 29.2 ng/mL | mean Cmax ([2]; single dose 30 mg): 55.9 ng/mL | mean AUC/24 ([2]; single dose 60 mg): 61 ng/mL | mean Cmax ([2]; single dose 60 mg): 116 ng/mL | Drug-seeking behavior (drug-seeking behavior): significantly reduced
